Measured values as given in patent publication US20030195350A1, “Individualization of therapy with antiviral agents” (priority 2001, published 2003).
Read-outs that look alike come from different tables or passages of the source. Marks after values point to notes of the source that are not given here.

How the values were obtained:
1X-Ab = test: Competitive antigen ELISA, cross-reactivity of 1X-Ab; type: binding, rabbit; settings: 0 = absence of inhibition or inhibition no higher than 40% at 5 × 10^−3 M
Protocol: (§1) Buffers and water without additives are filtered through millipore filters and kept for 1 week. BSA, antibodies, Tween™ 20 and horse radish peroxidase conjugates are added to these buffers and water just prior to use. Urine samples are usually collected 4 hours after drinking a cup of coffee (instant or brewed with approximately 100 mg of caffeine per cup) and stored at −80° C. The urine samples are diluted 10 times with sodium phosphate buffer (620 mosm, pH 7.50) and are subsequently diluted with water to give concentrations of AAMU and 1X no higher than 3×10^−6 M in the ELISA. All the pipettings are done with an eight-channel pipette, except those of the antibody and sample solutions. Starting with the last well, 100 μL of a carbonate buffer (100 mM, pH 9.6) containing 2.5 μg mL^−1 antibodies are added to each well. After 90 min. at room temperature, the wells are washed three times with […] of TPB: isotonic sodium phosphate buffer (310 mosm, pH 7.50) containing 0.05% Tween™ 20.
(§2) After the initial wash, unoccupied sites are blocked by incubation for 90 min. at room temperature with 100 μL TBP containing 3% BSA. The wells are washed four times with 100 μL TPB. […] The microplate is gently shaken with an orbital shaker at room temperature for 3-4 hours. The wells are washed three times with 100 μL TPB containing 1% BSA and three times with water containing 0.05% Tween™ 20. To the washed plate is added 150 μL of a substrate buffer composed of citric acid (25 mM) and sodium phosphate dibasic buffer (50 mM, pH 5.0) containing 0.06% hydrogen peroxide and 0.04% o-phenylenediamine hydrochloride.
(§3) Buffers and water without additives were filtered through millipore filters and kept for 1 week. BSA, antibodies, Tween™ 20 and horse radish peroxidase conjugates were added to these buffers and water just prior to use. Urine samples were usually collected 4 hours after drinking a cup of coffee (instant or brewed with approximately 100 mg of caffeine per cup) and stored at −80° C. They were diluted 10 times with sodium phosphate buffer (620 mosm, pH 7.50) and were subsequently diluted with water to give concentrations of AAMU and 1X no higher than 3×10^−6 M in the ELISA. All the pipettings were done with an eight-channel pipette, except those of the antibody and sample solutions. Starting with the last well, 100 μL of a carbonate buffer (100 mM, pH 9.6) containing 2.5 μg mL^−1 antibodies was pipetted. After 90 min. at room temperature, the wells were washed three times with 100 μL of TPB: isotonic sodium phosphate buffer (310 mosm, pH 7.50) containing 0.05% Tween™ 20.
(§4) After the initial wash, unoccupied sites were blocked by incubation for 90 min. at room temperature with 100 μL TBP containing 3% BSA. The wells were washed four times with 100 μL TPB. […] The microplate was gently shaken with an orbital shaker at room temperature for 3-4 hours. The wells were washed three times with 100 μL with TPB containing 1% BSA and three times with water containing 0.05% Tween™ 20. To the washed plate was added 150 μL of a substrate buffer composed of citric acid (25 mM) and sodium phosphate dibasic buffer (50 mM, pH 5.0) containing 0.06% hydrogen peroxide and 0.04% o-phenylenediamine hydrochloride. After 20 min. at room temperature with shaking, the reaction was stopped with 50 μL of 2.5 N HCl.
(§5) The cross reactivities of AAMU-Ab and 1X-Ab were tested using a wide variety of caffeine metabolites and structural analogs (Table 3 below).

AAMU-Ab = test: Competitive antigen ELISA, cross-reactivity of AAMU-Ab; type: binding, rabbit; settings: 0 = absence of inhibition or inhibition no higher than 40% at 5 × 10^−3 M
Protocol: as §1, §2, §3, §4, §5

[1] = co-administration with ritonavir; cited from earlier work
[2] = in vivo; cited from earlier work
[3] = cited from earlier work
HIV isolates = HIV isolates from individuals during ritonavir therapy vs matched baseline isolates; cited from earlier work
[4] = in vivo; cited from earlier work; remark: listed apart in the source

## Cn1c(=O)c2c(ncn2C)n(C)c1=O [1,3,7-Trimethyl Xanthine (Caffeine), 1,3,7-Trimethyl Xanthine]
1X-Ab
  % Cross-Reaction 1X-Ab: 0%
AAMU-Ab
  % Cross-Reaction AAMU-Ab: 0%

## Cn1c(=O)c2[nH]cnc2n(C)c1=O [1,3-Dimethyl Xanthine (Theophylline), 1,3-Dimethyl Xanthine]
[1]
  Effect (on drug concentration): down theophylline
1X-Ab
  % Cross-Reaction 1X-Ab: 0.2%
AAMU-Ab
  % Cross-Reaction AAMU-Ab: 0%

## Cn1c(=O)[nH]c2ncn(C)c2c1=O [1,7-Dimethyl Xanthine (Paraxanthine), 1,7-Dimethyl Xanthine]
1X-Ab
  % Cross-Reaction 1X-Ab: 0.5%
AAMU-Ab
  % Cross-Reaction AAMU-Ab: 0%

## Cn1c(=O)[nH]c2[nH]c(=O)n(C)c2c1=O [1,7-Dimethyluric acid]
1X-Ab
  % Cross-Reaction 1X-Ab: 0%
AAMU-Ab
  % Cross-Reaction AAMU-Ab: 0%

## Cn1c(=O)[nH]c2nc[nH]c2c1=O [1-Methyl Xanthine (1X), 1-Methyl Xanthine]
1X-Ab
  % Cross-Reaction 1X-Ab: 100%
AAMU-Ab
  % Cross-Reaction AAMU-Ab: 0%

## Cn1c(=O)[nH]c2[nH]c(=O)[nH]c2c1=O [1-Methyluric acid]
1X-Ab
  % Cross-Reaction 1X-Ab: 11%
AAMU-Ab
  % Cross-Reaction AAMU-Ab: 0%

## Cn1cnc2c1c(=O)[nH]c(=O)n2C [3,7-Dimethyl Xanthine (Theobromine), 3,7-Dimethyl Xanthine]
1X-Ab
  % Cross-Reaction 1X-Ab: 0%
AAMU-Ab
  % Cross-Reaction AAMU-Ab: 0%

## Cn1c(=O)[nH]c(=O)c2[nH]cnc21 [3-Methyl Xanthine]
1X-Ab
  % Cross-Reaction 1X-Ab: 0%
AAMU-Ab
  % Cross-Reaction AAMU-Ab: 0%

## CC(=O)Nc1c(N)n(C)c(=O)n(C)c1=O [5-Acetamino-6-amino-1,3-dimethyluracil]
1X-Ab
  % Cross-Reaction 1X-Ab: 0%
AAMU-Ab
  % Cross-Reaction AAMU-Ab: 0%

## CC(=O)Nc1c(N)n(C)c(=O)[nH]c1=O [5-Acetamino-6-amino-1-methyluracil]
1X-Ab
  % Cross-Reaction 1X-Ab: 0%
AAMU-Ab
  % Cross-Reaction AAMU-Ab: 100%

## CC(=O)Nc1c(N)[nH]c(=O)[nH]c1=O [5-Acetamino-6-amino-uracil]
1X-Ab
  % Cross-Reaction 1X-Ab: 0%
AAMU-Ab
  % Cross-Reaction AAMU-Ab: 0.6%

## Cn1cnc2[nH]c(=O)[nH]c(=O)c21 [7-Methyl Xanthine]
1X-Ab
  % Cross-Reaction 1X-Ab: 0%
AAMU-Ab
  % Cross-Reaction AAMU-Ab: 0%

## Cc1nc2[nH]c(=O)[nH]c(=O)c2[nH]1 [8-Methyl Xanthine]
1X-Ab
  % Cross-Reaction 1X-Ab: 0%
AAMU-Ab
  % Cross-Reaction AAMU-Ab: 0%

## CC(C)[C@H](NC(=O)N(C)Cc1csc(C(C)(C)O)n1)C(=O)N[C@@H](Cc1ccccc1)C[C@H](O)[C@H](Cc1ccccc1)NC(=O)OCc1cncs1 [Compound M-2]
[2]
  concentrations of metabolite in plasma: low

## COc1ccc2c(c1)[C@]13CCCC[C@@H]1[C@H](C2)N(C)CC3 [Dextromethorphan]
[3]; EMs (extensive metabolizers)
  mean performance+/−SE: 95+/−0.5%
[3]; PMs (poor metabolizers)
  mean performance+/−SE: 86+/−6%

## Nc1nc2nc[nH]c2c(=O)[nH]1 [Guanine]
1X-Ab
  % Cross-Reaction 1X-Ab: 0%
AAMU-Ab
  % Cross-Reaction AAMU-Ab: 0%

## O=c1[nH]cnc2nc[nH]c12 [Hypoxanthine]
1X-Ab
  % Cross-Reaction 1X-Ab: 0%
AAMU-Ab
  % Cross-Reaction AAMU-Ab: 0%

## CC(C)(C)NC(=O)[C@@H]1CN(Cc2cccnc2)CCN1C[C@@H](O)C[C@@H](Cc1ccccc1)C(=O)N[C@H]1c2ccccc2C[C@H]1O [Indinavir, indinavir]
HIV isolates
  decrease in susceptibility in vitro: 8 fold

## CC(=O)N1CCN(c2ccc(OCC3COC(Cn4ccnc4)(c4ccc(Cl)cc4Cl)O3)cc2)CC1 (stereo not shown) [Ketoconazole]
[1]
  Effect (on drug concentration): up ketoconazole

## CCOC(=O)C1(c2ccccc2)CCN(C)CC1 [Meperidine]
[1]
  Effect (on drug concentration): down meperidine

## CCC(=O)C(CC(C)N(C)C)(c1ccccc1)c1ccccc1 (stereo not shown) [Methadone]
[1]
  Effect (on drug concentration): down methadone

## CC(C)(C)NC(=O)[C@@H]1C[C@@H]2CCCC[C@@H]2CN1C[C@@H](O)[C@H](Cc1ccccc1)NC(=O)[C@H](CC(N)=O)NC(=O)c1ccc2ccccc2n1 [Saquinavir, saquinavir]
HIV isolates
  decrease in susceptibility in vitro: did not demonstrate a concordant decrease in susceptibility

## O=c1cc[nH]c(=O)[nH]1 [Uracil]
1X-Ab
  % Cross-Reaction 1X-Ab: 0%
AAMU-Ab
  % Cross-Reaction AAMU-Ab: 0%

## O=c1[nH]c(=O)c2[nH]c(=O)[nH]c2[nH]1 [Uric acid]
1X-Ab
  % Cross-Reaction 1X-Ab: 0%
AAMU-Ab
  % Cross-Reaction AAMU-Ab: 0%

## O=c1[nH]c(=O)c2[nH]cnc2[nH]1 [Xanthine]
1X-Ab
  % Cross-Reaction 1X-Ab: 0%
AAMU-Ab
  % Cross-Reaction AAMU-Ab: 0^a %

## Cc1cn([C@H]2C[C@H](N=[N+]=[N-])[C@@H](CO)O2)c(=O)[nH]c1=O [ZDV, zidovudine]
[4]
  Adverse event: Abdominal Pain: 5.9%
  Adverse event: Anorexia: 4.2%
  Adverse event: Anxiety: 0.8%
  Adverse event: Arthralgia: 0.0%
  Adverse event: Asthenia: 11.8%
  Adverse event: Circumoral Paresthesia: 0.0%
  Adverse event: Confusion: 0.0%
  Adverse event: Constipation: 0.8%
  Adverse event: Depression: 2.5%
  Adverse event: Diarrhea: 2.5%
  Adverse event: Dizziness: 3.4%
  Adverse event: Dyspepsia: 1.7%
  Adverse event: Fecal Incontinence: 0.0%
  Adverse event: Fever: 1.7%
  Adverse event: Flatulence: 1.7%
  Adverse event: Headache: 6.7%
  Adverse event: Insomnia: 0.8%
  Adverse event: Local Throat Irritation: 0.8%
  Adverse event: Malaise: 3.4%
  Adverse event: Myalgia: 0.8%
  Adverse event: Nausea: 26.1%
  Adverse event: Nocturia: 0.0%
  Adverse event: Pain (unspecified): 0.8%
  Adverse event: Paresthesia: 0.0%
  Adverse event: Peripheral Paresthesia: 0.8%
  Adverse event: Pharyngitis: 0.0%
  Adverse event: Rash: 0.8%
  Adverse event: Somnolence: 0.0%
  Adverse event: Sweating: 1.7%
  Adverse event: Syncope: 0.8%
  Adverse event: Taste Perversion: 8.4%
  Adverse event: Thinking Abnormal: 0.8%
  Adverse event: Vasodilation: 0.8%
  Adverse event: Vomiting: 12.6%
  Adverse event: Weight Loss: 0.0%

## CC(C)CN(C[C@@H](O)[C@H](Cc1ccccc1)NC(=O)O[C@H]1CCOC1)S(=O)(=O)c1ccc(N)cc1 [amprenavir]
HIV isolates
  decrease in susceptibility in vitro: none

## CCOC(=O)C1(c2ccccc2)CCNCC1 [normeperidine]
[1]
  Effect (on drug concentration): up normeperidine
